Measurements: PubChem BioAssay AID248 (DTP/NCI, 2004)
Inconclusive results and toxic doses are left out. No stated cut-off is given here; in the data, active means T/C of 150% or more; inactive means T/C below 125%.

System: L1210 leukemia ip in BDF1 mice, survival T/C
Test: NCI In Vivo Anticancer Drug Screen. Data for tumor model L1210 Leukemia (intraperitoneal) in B6D2F1 (BDF1) mice
Settings: endpoint: mean survival time, higher = longer survival
How it was run: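 Each compound was tested against a transplantable tumor grown in mice. The endpoint was survival, with treated animals benchmarked against vehicle controls as a simple ratio.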

[1] = dose: 100.0 mg/kg/injection, schedule: Q04DX003 (ip), vehicle: saline
[2] = dose: 200.0 mg/kg/injection, schedule: Q04DX003 (ip), vehicle: saline
[3] = dose: 400.0 mg/kg/injection, schedule: Q04DX003 (ip), vehicle: saline
[4] = dose: 100.0 mg/kg/injection, schedule: Q01DX001 (ip), vehicle: saline
[5] = dose: 200.0 mg/kg/injection, schedule: Q01DX001 (ip), vehicle: saline
[6] = dose: 400.0 mg/kg/injection, schedule: Q01DX001 (ip), vehicle: saline

Measured: T/C

CCOC(=O)/C(Br)=C/SCCN
inactive: dose: 100.0 mg/kg/injection, schedule: Q01DX009 (ip), vehicle: saline 97 % of control | dose: 200.0 mg/kg/injection, schedule: Q01DX009 (ip), vehicle: saline 92 % of control | dose: 400.0 mg/kg/injection, schedule: Q01DX009 (ip), vehicle: saline 91 % of control

S=C(S)NCCNC(=S)S
inactive: dose: 100.0 mg/kg/injection, schedule: Q04DX003 (ip), vehicle: saline with Tween-80 93 % of control | [1] 95 % of control | dose: 200.0 mg/kg/injection, schedule: Q04DX003 (ip), vehicle: saline with Tween-80 90 % of control | [2] 97 % of control | dose: 400.0 mg/kg/injection, schedule: Q04DX003 (ip), vehicle: saline with Tween-80 87 % of control | [3] 101 % of control

CC(=O)OC1CC2CCC1(S(=O)(=O)O)C2(C)C (stereo unspecified)
inactive: [4] 107 % of control | [1] 103 % of control | [5] 108 % of control | [2] 103 % of control | [6] 107 % of control | [3] 114 % of control

BrC1c2ccccc2-c2nc3ccccc3cc21 (stereo unspecified)
inactive: dose: 37.5 mg/kg/injection, schedule: Q01DX001 (ip), vehicle: Klucel (hydroxypropylcellulose) (HPC) 103 % of control | dose: 75.0 mg/kg/injection, schedule: Q01DX001 (ip), vehicle: Klucel (hydroxypropylcellulose) (HPC) 97 % of control | dose: 150.0 mg/kg/injection, schedule: Q01DX001 (ip), vehicle: Klucel (hydroxypropylcellulose) (HPC) 101 % of control

O=C(Nc1ccc(Cl)cc1)OCCN(CCOC(=O)Nc1ccc(Cl)cc1)Cc1ccccc1
inactive: [4] 101 % of control | [5] 95 % of control | [6] 95 % of control

NNC(=O)C1CCC1C(=O)NN (stereo unspecified)
inactive: dose: 75.0 mg/kg/injection, schedule: Q01DX001 (ip), vehicle: saline 103 % of control | dose: 75.0 mg/kg/injection, schedule: Q04DX003 (ip), vehicle: saline 96 % of control | dose: 150.0 mg/kg/injection, schedule: Q01DX001 (ip), vehicle: saline 99 % of control | dose: 150.0 mg/kg/injection, schedule: Q04DX003 (ip), vehicle: saline 103 % of control | dose: 300.0 mg/kg/injection, schedule: Q01DX001 (ip), vehicle: saline 97 % of control | dose: 300.0 mg/kg/injection, schedule: Q04DX003 (ip), vehicle: saline 103 % of control

CCN1CCC(CNc2cc(C)nc(/N=C(\N)Nc3cc(Cl)cc(Cl)c3)n2)C1 (stereo unspecified)
inactive: dose: 12.5 mg/kg/injection, schedule: Q04DX003 (ip), vehicle: Klucel (hydroxypropylcellulose) (HPC) 102 % of control | dose: 25.0 mg/kg/injection, schedule: Q04DX003 (ip), vehicle: Klucel (hydroxypropylcellulose) (HPC) 105 % of control | dose: 50.0 mg/kg/injection, schedule: Q04DX003 (ip), vehicle: Klucel (hydroxypropylcellulose) (HPC) 105 % of control

CC(=O)N1Cc2cc3ccccc3nc2C1
inactive: [1] 98 % of control | [2] 107 % of control | [3] 96 % of control

CN1CN(c2ccccc2)C2(CCN(CCC3Oc4ccccc4O3)CC2)C1=O
inactive: dose: 100.0 mg/kg/injection, schedule: Q01DX001 (ip), vehicle: Klucel (hydroxypropylcellulose) (HPC) 102 % of control | dose: 200.0 mg/kg/injection, schedule: Q01DX001 (ip), vehicle: Klucel (hydroxypropylcellulose) (HPC) 98 % of control | dose: 400.0 mg/kg/injection, schedule: Q01DX001 (ip), vehicle: Klucel (hydroxypropylcellulose) (HPC) 103 % of control
